From patent US11926628B2 (Gilead Sciences, Inc., priority 2021, dated 2024)

Experiments:
human DGKα = human DGKα (Homo sapiens (Human), UniProt P23743); assay: DGKα Biochemical Activity Assay (ADP-Glo); conditions: recombinant DGKα 1 nM, 100 μM ATP, 18:1 DAG/POPS/octylglucoside micelles, 1 hour at 25° C.; geometric mean; read-out: HTBS DGKa 1X ATP KM IC50
Summary of the method: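 Recombinant DGKα (1 nM final) was preincubated with compound for 15 min, then reacted for 1 h at 25 °C with 100 μM ATP and octylglucoside micelles of 0.85 mM 18:1 DAG and 6.75 mM POPS in pH 7.2 MOPS with 5 mM MgCl2. ADP formed was read by ADP-Glo luminescence. IC50 came from four-parameter fits normalized to DMSO and 50 μM CU3, and values were geometric means.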

[1] = tested on: Jurkat NFκB-luciferase cells; assay: Jurkat NFκB-Luciferase Assay; assay type: cell-based; conditions: Homo sapiens; Jurkat NFκB-luciferase cells activated with anti-CD3 antibody (OKT3), 2.5 hrs at 37° C.; geometric mean; read-out: DGK NFKb Luciferase EC50
Summary of the method: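 Jurkat NFκB-luciferase reporter cells stimulated on plate-bound anti-CD3 (5 ug/ml coating) with compound, 2.5 hrs at 37° C then 30 min at 25° C; luminescence read with One-Glo Ex. Normalized to DMSO (basal) and 1 micromolar compound (maximum) controls; EC50 from four-parameter fit, geometric mean across experiments.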

human DGKα, sequence (P23743 whole entry): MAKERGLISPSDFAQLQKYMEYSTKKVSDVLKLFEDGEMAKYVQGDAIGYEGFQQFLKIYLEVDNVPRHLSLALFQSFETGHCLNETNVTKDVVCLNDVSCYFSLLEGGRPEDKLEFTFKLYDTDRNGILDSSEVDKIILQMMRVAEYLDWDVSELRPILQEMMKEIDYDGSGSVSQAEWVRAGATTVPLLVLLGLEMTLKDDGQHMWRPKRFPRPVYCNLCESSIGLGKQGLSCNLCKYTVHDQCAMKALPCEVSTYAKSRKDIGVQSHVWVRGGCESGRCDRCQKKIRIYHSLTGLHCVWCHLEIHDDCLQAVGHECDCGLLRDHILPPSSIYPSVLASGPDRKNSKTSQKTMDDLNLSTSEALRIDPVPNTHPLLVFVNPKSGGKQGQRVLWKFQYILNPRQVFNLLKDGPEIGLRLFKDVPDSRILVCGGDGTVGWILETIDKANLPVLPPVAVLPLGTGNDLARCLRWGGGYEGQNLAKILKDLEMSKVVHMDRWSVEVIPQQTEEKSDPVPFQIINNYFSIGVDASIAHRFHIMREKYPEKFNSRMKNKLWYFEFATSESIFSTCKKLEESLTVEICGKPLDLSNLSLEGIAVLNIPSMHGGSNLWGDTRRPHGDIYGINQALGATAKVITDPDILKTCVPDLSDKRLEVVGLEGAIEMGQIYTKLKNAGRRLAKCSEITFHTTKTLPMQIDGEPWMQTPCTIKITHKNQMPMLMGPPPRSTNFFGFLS

SMILES | IC50 (human DGKα) [nM] | EC50 [1] [nM]
Cc1nnc2nc(N3CCCc4c(C#CC(C)(C)O)cccc43)c3ccc(C(F)(F)F)nc3n12 [Example 145, 2-methyl-4-(1-(9-methyl-2-(trifluoromethyl)pyrido[3,2-e][1,2,4]triazolo[4,3-a]pyrimidin-5-yl)-1,2,3,4-tetrahydroquinolin-5-yl)but-3-yn-2-ol] | 59.6 | 8.73
CCC(O)C#Cc1cccc2c1CCCN2c1nc2nncn2c2ncc(F)cc12 (stereo not drawn) [Example 146, 1-(1-(3-fluoropyrido[3,2-e][1,2,4]triazolo[4,3-a]pyrimidin-5-yl)-1,2,3,4-tetrahydroquinolin-5-yl)pent-1-yn-3-ol] | 7.78 | 18.1
CC(C)(C#N)C#Cc1cccc2c1CCCN2c1nc2nncn2c2ncc(F)cc12 [Example 147, 4-(1-(3-fluoropyrido[3,2-e][1,2,4]triazolo[4,3-a]pyrimidin-5-yl)-1,2,3,4-tetrahydroquinolin-5-yl)-2,2-dimethylbut-3-ynenitrile] | 4.38 | 4.24
CCC(C)(O)C#Cc1cccc2c1CCCN2c1nc2nncn2c2ncc(F)cc12 (stereo not drawn) [Example 148, 1-(1-(3-fluoropyrido[3,2-e][1,2,4]triazolo[4,3-a]pyrimidin-5-yl)-1,2,3,4-tetrahydroquinolin-5-yl)-3-methylpent-1-yn-3-ol] | 13.7 | 20.7
CC(C)(O)C#Cc1cccc2c1CCCN2c1nc2nncn2c2ncc(F)cc12 [Example 149, 4-(1-(3-fluoropyrido[3,2-e][1,2,4]triazolo[4,3-a]pyrimidin-5-yl)-1,2,3,4-tetrahydroquinolin-5-yl)-2-methylbut-3-yn-2-ol] | 8.71 | 12
Fc1cnc2c(c1)c(N1CCCc3c(C#CC4(C(F)(F)F)CC4)cccc31)nc1nncn12 [Example 150, 11-fluoro-8-[5-[2-[1-(trifluoromethyl)cyclopropyl]ethynyl]-3,4-dihydro-2H-quinolin-1-yl]-2,4,5,7,13-pentazatricyclo[7.4.0.02,6]trideca-1(13),3,5,7,9,11-hexaene] | 8.44 | 2.18

Now from value to molecule:

IC50 (human DGKα) [nM] | EC50 [1] [nM] | SMILES
51.4 | 3.82 | CCC1(C#Cc2cccc(N(C)c3nc4nncn4c4ncc(F)cc34)c2)CC1 [Example 151, N-[3-[2-(1-ethylcyclopropyl)ethynyl]phenyl]-11-fluoro-N-methyl-2,4,5,7,13-pentazatricyclo[7.4.0.02,6]trideca-1(13),3,5,7,9,11-hexaen-8-amine]
32 | 3.18 | CN(c1cccc(C#CC(C)(C)C)c1)c1nc2nncn2c2ncc(F)cc12 [Example 152]
29.4 | 45.2 | CN(c1cccc(C#CC(C)(C)O)c1)c1nc2nncn2c2ncc(F)cc12 [Example 153]
20.7 | 3.54 | CN(c1cccc(C#CC2(C(F)(F)F)CC2)c1)c1nc2nncn2c2ncc(F)cc12 [Example 154, 3-fluoro-N-methyl-N-(3-((1-(trifluoromethyl)cyclopropyl)ethynyl)phenyl)pyrido[3,2-e][1,2,4]triazolo[4,3-a]pyrimidin-5-amine]
17.2 | 0.707 | CN(c1cccc(-c2ccc(C3CC3)cc2)c1)c1nc2nncn2c2ncc(F)cc12 [Example 155, N-(4′-cyclopropyl-[1,1′-biphenyl]-3-yl)-3-fluoro-N-methylpyrido[3,2-e][1,2,4]triazolo[4,3-a]pyrimidin-5-amine]
10.7 | 2.69 | CN(c1cc(F)cc(C#CC2(C(F)(F)F)CC2)c1)c1nc2nncn2c2ncc(F)cc12 [Example 156, 3-fluoro-N-(3-fluoro-5-((1-(trifluoromethyl)cyclopropyl)ethynyl)phenyl)-N-methylpyrido[3,2-e][1,2,4]triazolo[4,3-a]pyrimidin-5-amine]
